The assay deals with PBMC. As to the kind of experiment: IFN-γ ELISPOT assay of T cell responses to HERV and HIV-1 peptides. The note with it: a study participant whose PBMC were used for the 51Cr release assay. It counts as cell-based, Human. The method, then:
HIV-1 positive volunteers were selected for this study. The study was approved by the local institutional review board and subjects were given written informed consent. Studies were performed on cryopreserved PBMC from various patient timepoints.
ELISPOT analysis was performed as previously described^34. Plates were incubated 15-18 hours at 37° C. Equivalent antigen concentrations were used for HIV and HERV peptide response comparisons. Assays were performed with duplicate wells for each condition, expect where cell recovery from archived samples dictated the use of single wells. Plates were counted with an AID ELISPOT reader (Cell Technology,). Spot totals for duplicate wells were averaged, and all spot numbers were normalized to numbers of IFN-γ spot-forming units (SFU) per 1×10^6PBMC. Spot values from media control wells were subtracted to determine responses to each peptide. Any resulting peptide values <0 following media subtraction were set to 0 for further analysis.

The record followed here is US20130323279A1, “Human Endogenous Retrovirus Polypeptide Compositions and Methods of Use Thereof” (The J. David Gladstone Institutes, priority 2006, published 2013).

Take IPVHKAHKKQ [HERV-L IQ10]: the “response of study participant's PBMC to peptide” value is reported as “responded”.
